In US9296691B2, “Inhibitors of p75 receptor and their uses” (Horacio Uri Saragovi, priority 2010, dated 2016):

Columns and labels:
p75-Fc = molecular target: T1, p75-Fc (Homo sapiens, UniProt P08138); test: Competitive ELISA, p75-Fc binding to immobilized NGF
T1 construct: purchased R&D
T1 sequence (P08138 29-250 limits assumed): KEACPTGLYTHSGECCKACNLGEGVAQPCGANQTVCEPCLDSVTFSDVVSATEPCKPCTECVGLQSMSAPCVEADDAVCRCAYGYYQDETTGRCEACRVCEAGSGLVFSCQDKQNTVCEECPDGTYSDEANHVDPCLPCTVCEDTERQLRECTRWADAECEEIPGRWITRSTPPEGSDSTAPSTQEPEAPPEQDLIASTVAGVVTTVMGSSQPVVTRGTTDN
Description: The effect of compounds I-B and LM-24 on the binding between NGF and p75 was tested in competitive ELISA assays, where the antagonists prevent soluble p75 from binding to immobilized NGF. The selectivity of antagonism was evaluated by lack of effect upon NGF-TrkA or lack of effect between NGF and anti-NGF monoclonal antibody (mAb) NGF30 interactions (FIG. 1A).
The compound LM-24 has been reported by others (Massa et al., 2006). Binding studies were carried out with all the compounds using I-B as reference.
Competitive ELISAs were performed as described (Saragovi et al., 1998). The procedure immobilized 50 ng/well NGF, or pro-NGF (Alomone Labs, Israel) onto polystyrene 96-well microtest plates, with washing and blocking with binding buffer (BB; phosphate buffered saline containing 0.5% bovine serum albumin). The following primary reagents in BB were added: recombinant chimeric p75-Fc or recombinant chimeric TrkA-Fc (R&D), or anti-NGF mAb NGF30 (Saragovi et al., 1998); each at 50 nM. The competitors I-B and the other test compounds (or control LM-24) were added at the indicated concentrations, and the plates were incubated for 45 minutes. After washing 3× in BB, HRP-conjugated secondary reagents (Sigma) were added for 30 min (goat anti-human Fc for p75-Fc and for TrkA-Fc; and goat anti-rat Ab for NGF30 mAb), and then wells were washed 3× in BB and 1× in PBS. Peroxidase activity was determined colorimetrically using the substrate TMB One Solution (Promega). The reaction was stopped with 0.5 N H2SO4 and the plates were read at 450 nm (Benchmark Plus, Bio-Rad). Assays were repeated n>4 times, with replicates of 4 wells each assay. […] Wells with no NGF immobilized but with all other reagents added were treated as background (<15% of maximal signals) and standardized to 0% binding.

[1] = system: NGI (NFL-GCL-IPL) retinal layers; test: ON axotomy model, retinal NGI thickness by FD-OCT; format: in vivo; conditions: rat ON axotomy, 3 μg intravitreal immediately after axotomy, days 11 and 14, versus untreated axotomy
Description: Antagonists of p75NTR prevented loss of retinal structure after ON axotomy. The relative in vivo efficacy for I-B and LM-24 was tested using the ON axotomy model. A quantitative non-invasive structural endpoint, FD-OCT, was performed in the same animal over time to measure the integrity of the neuronal layers. We quantified the axons and fibers of the RGCs that contribute to the thickness of the Nerve Fiber Layer (NFL), the Ganglion Cell Layer (GCL), and the Inner Plexiform Layer (IPL), herein termed NGI. Maintenance of NGI structure correlates with RGC health (Bai et al., 2010a).
Wistar rats (female, 250-300 g; Charles River) were kept in a 12 hours dark-light cycle with food and water ad libitum. All animal manipulations were performed between 9 AM and 12 AM. […]
FD-OCT is a non-invasive method that allows time-kinetic studies in the same animal. […] In each B-scan the thickness of the NFL-GCL-IPL (NGI) was measured at four adjacent points at a distance 1.5 mm from the ON head. […]
For studies in the glaucoma animal model the injections were performed at days 14 and 21 after cauterization. […] Thus, in this paradigm there is pre-existing damage for 14 days before treatment (measured at ˜8% RGC death (Shi et al., 2007; Shi et al., 2008)); and the treatments require long-lived efficacy in the constant presence of retinal stress due to high IOP. […]

α2M = test: Glaucoma model, retinal α2M by western blot; format: in vivo, rat; conditions: intravitreal injection at glaucoma day 14, measured 3 and 5 days later
Description: After 14-days of glaucoma eyes were injected intravitreally with p75NTR antagonists, and the levels of TNF-α and α2M were measured three days later (e.g. day 17 of glaucoma) and five days later (e.g. day 19 of glaucoma) (FIG. 3A).
Both retinas of each animal were detergent solubilized, and studied in independent gels standardized to loading control. The ratio of the glaucoma eye ±treatment versus the normal contralateral eye was calculated, and results were averaged ±sem, n=3 animals per group. In glaucoma, all drug treatments were done at day 14 of hypertension. In one group the retinas were harvested at day 17 of glaucoma (3 days after intraocular injection) and in the other group the retinas were harvested at day 19 of glaucoma (5 days after intraocular injection). Normal eyes treated with NGF-A were collected in the indicated days. After SDS-PAGE and western transfer, membranes were immunoblotted with rabbit polyclonal antibodies against TNF-α (Preprotech) or α2M (Santa Cruz) at a 1:3000 dilution. Goat anti-rabbit secondary antibodies conjugated to horseradish peroxidase (Sigma) were used at a 1:10,000 dilution. Loading was controlled with antibodies to β-actin (Sigma). For digital quantification, membranes were scanned and analyzed using ImageJ software.

SMILES: CC(C)NC(=O)N(C(=O)Cn1cnc2c1c(=O)n(C)c(=O)n2C)C(C)C [I-B, 1,3-Diisopropyl-1-[2-(1,3-dimethyl-2,6-dioxo-1,2,3,6-tetrahydro-purin-7-yl)-acetyl]-urea]
- remaining activity at 30 µM (p75-Fc; 0.75 h, binding to immobilized NGF, no cpd = 100%, p75-Fc 50 nM, as described for FIG. 1A (compounds 30 μM), below 100% indicates inhibition): 52%
- effect on NGF-p75NTR interaction (p75-Fc; competitive ELISA, FIG. 1A, compound at 30 μM): antagonized NGF-p75NTR interactions selectively
- preservation of NGI thickness (FD-OCT) [1]: significant preservation of the NGI thickness
- α2M level in glaucomatous retina, fold-change versus normal retina (α2M): time-dependent inhibition
